pIC50: −log10 of the molar value. Positions of bridges follow the written chain, without caps; N, C: chain ends. Non-standard residues stand in square brackets, D forms with d. Residues, ends and D or L forms follow the SMILES beside them. ξ: configuration not given here. ξPro(4R-OH) = O=C(O)C1C[C@@H](O)CN1; dNMeNle = CCCC[C@@H](NC)C(=O)O; Orn = NCCC[C@H](N)C(=O)O; dDap = NC[C@@H](N)C(=O)O; Dab = NCC[C@H](N)C(=O)O; Dap = NC[C@H](N)C(=O)O; ξPip = O=C(O)C1CCCCN1; ξP = O=C(O)C1CCCN1
Key:
[1] = molecular target: T1, LK35.2-hPD-L1 cells / PE-labeled PD-1-Ig (Homo sapiens, UniProt Q9NZQ7); experiment: LK35.2-hPD-L1 cell binding high-content screening assay; assay type: cell-based; conditions: cluster symbol; cell line of CBA not given (LK35.2-hPD-L1 or 293T-hPD-L1); read-out: CBA IC50 cluster
T1 construct: expressed in transfected cells; host or cells: LK35.2 mouse B cell line
T1 sequence (Q9NZQ7 19-290): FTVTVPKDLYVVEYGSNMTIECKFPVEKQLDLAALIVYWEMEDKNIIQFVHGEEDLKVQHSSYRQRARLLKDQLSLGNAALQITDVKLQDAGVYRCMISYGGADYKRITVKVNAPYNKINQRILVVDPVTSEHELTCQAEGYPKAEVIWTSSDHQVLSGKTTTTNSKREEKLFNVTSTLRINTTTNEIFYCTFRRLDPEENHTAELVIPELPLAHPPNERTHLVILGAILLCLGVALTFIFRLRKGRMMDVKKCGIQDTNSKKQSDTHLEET
In short: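 Mouse LK35.2 B cells stably over-expressing human PD-L1, cultured overnight, treated with compound plus PE-labeled human PD-1-Ig (1 nM final) in RPMI/10% FCS for 1 h at 37 °C. After washing, bound fluorescence quantified by high-content imaging.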

Human PD-L1/PD-1 = molecular target: T2, Human PD-L1/PD-1 (Homo sapiens, UniProt Q9NZQ7); experiment: HTRF PD-1-Ig/PD-L1-His binding assay (human PD-L1); conditions: cluster symbol; read-out: HTRF IC50 cluster
T2 construct: made in house; host or cells: HEK293T
T2 sequence (Q9NZQ7 with tags, fused parts or gaps): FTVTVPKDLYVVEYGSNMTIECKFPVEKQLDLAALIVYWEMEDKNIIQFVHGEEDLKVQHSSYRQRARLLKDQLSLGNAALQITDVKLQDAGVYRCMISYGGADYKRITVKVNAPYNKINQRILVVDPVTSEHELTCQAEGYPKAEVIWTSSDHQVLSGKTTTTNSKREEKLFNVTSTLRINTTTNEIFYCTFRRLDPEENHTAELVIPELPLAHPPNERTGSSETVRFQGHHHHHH
In short: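 Interaction of Fc-tagged soluble PD-1 with His-tagged soluble PD-L1 is monitored by time-resolved FRET. Donor is europium cryptate anti-Ig (1 nM final) and acceptor is APC anti-His (20 nM final). Assay buffer is dPBS with 0.1% BSA and 0.05% Tween-20.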

pIC50 [1] | pIC50 (Human PD-L1/PD-1) | SMILES
< 7.13 | 7.52 to 8.17 | CCCC[C@@H]1C(=O)N(C)[C@H](CCCC)C(=O)N[C@@H](C)C(=O)N[C@@H](C(=O)NCC(N)=O)CSCC(=O)N[C@@H](Cc2ccc(O)cc2)C(=O)N2CCCC2C(=O)N[C@H](CC(N)=O)C(=O)N2CCC[C@H]2C(=O)N[C@H](CN)C(=O)N[C@@H](CCC(N)=O)C(=O)N2CCCC2C(=O)N[C@H](Cc2c[nH]c3ccccc23)C(=O)N[C@@H](CCN)C(=O)N[C@@H](Cc2c[nH]c3ccccc23)C(=O)N1C (stereo partly drawn) [Example 1211] ({CH2CO}-Y[ξP][dN]P[dDap]Q[ξP][dW][Dab]W[dNMeNle][dNMeNle]A[dC]G-NH2; thioether N-14)
< 7.13 | < 7.52 | CCCC[C@@H]1C(=O)N(C)[C@H](CCCC)C(=O)N[C@@H](CN)C(=O)N[C@@H](C(=O)NCC(N)=O)CSCC(=O)N[C@@H](Cc2ccc(O)cc2)C(=O)N2CCCC2C(=O)N[C@H](CC(=O)O)C(=O)N2CCC[C@H]2C(=O)N[C@H](CN)C(=O)N[C@@H](CC(=O)O)C(=O)N2CCCC2C(=O)N[C@H](Cc2c[nH]c3ccccc23)C(=O)N[C@@H](CCN)C(=O)N[C@@H](Cc2c[nH]c3ccccc23)C(=O)N1C (stereo partly drawn) [Example 1212] ({CH2CO}-Y[ξP][dD]P[dDap]D[ξP][dW][Dab]W[dNMeNle][dNMeNle][Dap][dC]G-NH2; thioether N-14)
7.14 to 8.32 | 7.52 to 8.17 | CCCC[C@@H]1C(=O)N(C)[C@H](CCCC)C(=O)N[C@@H](CN)C(=O)N[C@@H](C(=O)NCC(N)=O)CSCC(=O)N[C@@H](Cc2ccc(O)cc2)C(=O)N2CCCC2C(=O)N[C@H](CC(=O)O)C(=O)N2CCC[C@H]2C(=O)N[C@H](CN)C(=O)N[C@@H](CCC(N)=O)C(=O)N2CCCC2C(=O)N[C@H](Cc2c[nH]c3ccccc23)C(=O)N[C@@H](CCN)C(=O)N[C@@H](Cc2c[nH]c3ccccc23)C(=O)N1C (stereo partly drawn) [Example 1213] ({CH2CO}-Y[ξP][dD]P[dDap]Q[ξP][dW][Dab]W[dNMeNle][dNMeNle][Dap][dC]G-NH2; thioether N-14)
7.14 to 8.32 | 7.52 to 8.17 | CCCC[C@@H]1C(=O)N(C)[C@H](CCCC)C(=O)N[C@@H](CCCN)C(=O)N[C@@H](C(=O)NCC(N)=O)CSCC(=O)N[C@@H](Cc2ccc(O)cc2)C(=O)N2CCCC2C(=O)N[C@H](CC(=O)O)C(=O)N2CCC[C@H]2C(=O)N[C@H](CN)C(=O)N[C@@H](CCC(=O)O)C(=O)N2CCCC2C(=O)N[C@H](Cc2c[nH]c3ccccc23)C(=O)N[C@@H](CCN)C(=O)N[C@@H](Cc2c[nH]c3ccccc23)C(=O)N1C (stereo partly drawn) [Example 1214] ({CH2CO}-Y[ξP][dD]P[dDap]E[ξP][dW][Dab]W[dNMeNle][dNMeNle][Orn][dC]G-NH2; thioether N-14)
< 7.13 | 7.52 to 8.17 | CCCC[C@@H]1C(=O)N(C)[C@H](CCCC)C(=O)N[C@@H](CCCN)C(=O)N[C@@H](C(=O)NCC(N)=O)CSCC(=O)N[C@@H](Cc2ccc(O)cc2)C(=O)N2CCCC2C(=O)N[C@H](CC(=O)O)C(=O)N2CCC[C@H]2C(=O)N[C@H](Cc2c[nH]cn2)C(=O)N[C@@H](CCC(=O)O)C(=O)N2CCCC2C(=O)N[C@H](Cc2c[nH]c3ccccc23)C(=O)N[C@@H](CCN)C(=O)N[C@@H](Cc2c[nH]c3ccccc23)C(=O)N1C (stereo partly drawn) [Example 1216] ({CH2CO}-Y[ξP][dD]P[dH]E[ξP][dW][Dab]W[dNMeNle][dNMeNle][Orn][dC]G-NH2; thioether N-14)
7.14 to 8.32 | 7.52 to 8.17 | CCCC[C@@H]1C(=O)N(C)[C@H](CCCC)C(=O)N[C@@H](CCCNC(=N)N)C(=O)N[C@@H](C(=O)NCC(N)=O)CSCC(=O)N[C@@H](Cc2ccc(O)cc2)C(=O)N2CCCCC2C(=O)N[C@H](CCC(=O)O)C(=O)N2CCC[C@H]2C(=O)N[C@H](Cc2c[nH]cn2)C(=O)N[C@@H](CCCN)C(=O)N2C[C@H](O)CC2C(=O)N[C@H](Cc2c[nH]c3ccccc23)C(=O)N[C@@H](CO)C(=O)N[C@@H](Cc2c[nH]c3ccccc23)C(=O)N1C (stereo partly drawn) [Example 1217] ({CH2CO}-Y[ξPip][dE]P[dH][Orn][ξPro(4R-OH)][dW]SW[dNMeNle][dNMeNle]R[dC]G-NH2; thioether N-14)

Source: patent US9850283B2, “Macrocyclic inhibitors of the PD-1/PD-L1 and CD80(B7-1)/PD-L1 protein/protein interactions” (BRISTOL-MYERS SQUIBB COMPANY, priority 2013, dated 2017)
